Reference: patent US7910624B1, “Compositions for the treatment of blood disorders” (The Trustees of Boston University, priority 1995, dated 2011)

Assays:
[1] = system: human erythroid cells; test: DNA fragmentation by flow cytometry (propidium iodide); type: cell-based; settings: for effect in DNA fragmentation assays: summary statement
Method: Such activities might limit their utility for treatment of anemias such as occur in thalassemia, but alternatively would be useful for anticancer effects. To determine cell viability, human erythroid cells were cultured in the presence and absence of these compounds for 4 days and the amount of DNA fragmentation which occurred was measured.
Flow cytometric determination of DNA profiles and DNA fragmentation were determined. Cytometric analysis was performed with a FACScan (Becton Dickenson Instruments; Columbia, Md.). The data analysis and display were performed using the Cell-Fit software program. Approximately 0.5×10^6 cells were washed twice with PBS and resuspended in 1 ml of 1% sodium citrate, 0.1% Triton X-100 and […] of propidium iodide/ml. Resulting permeabilized cells were kept in the dark at 4° C. overnight before DNA profile or DNA fragmentation analysis (Table 4).

[2] = system: γ-globin promoter fragment containing FRE-γ1; test: Gel mobility shift assay with nuclear extracts of patients' erythroblasts; set-up: species or system human; settings: nuclear extracts of thalassemic patients on therapy, 21 and 43 hours after
Method: To gain further information on transcription factors binding to FRE elements, gel mobility shift assays with were carried out with promoter fragments containing FRE-γ1. The 3′ half of the DNA sequence of FRE-γ1 is overlapped with that of the stage-selector element (SSE) which has recently been identified in the γ-globin promoter and may be competitively silencing γ-globin gene expression in the fetal stage. Nuclear extracts were purified from a human erythroleukemia cell line, K562, and from erythroblasts that were isolated from peripheral blood or bone marrow of patients. Nuclear extracts used for gel mobility shift assays were prepared as described (Andrews et al., Nucl. Acids Res. 19:2499-2500, 1991). Oligonucleotides, corresponding to the nucleotide sequence from −39 to −78 of the γ-globin promoter (FIG. 13), were annealed to form double-stranded DNA and 5′-labeled with T4 polynucleotide kinase. Prior to addition of a labeled probe, 5 μg of nuclear extracts were mixed with 500 ng of poly(dA-dT) in 20 μl of a binding buffer (25 mM Hepes, pH 7.5, 50 mM KCl, 12.5 mM MgCl2, 1 mM DTT, 10 mM ZnSO4, 5% (v/v) glycerol, 1% (v/v) NP-40) at room temperature for 30 minutes. After addition of a labeled probe of 5×10^6 cpm, the mixture was incubated for 30 minutes at room temperature. […]

[3] = system: BFU-e (burst forming unit-erythroid) colonies from peripheral blood mononuclear cells; test: Stimulation of erythroid proliferation in cell cultures (BFU-e colony growth); type: cell-based, human; settings: 0.1 mM; 13-14 days; compared with control cultures
Method: Peripheral blood was collected from normal volunteers and patients with anemia due to sickle cell disease or thalassemia. Mononuclear cells were isolated by Ficoll-Hypaque (Pharmacia Biotech; Piscataway, N.J.) centrifugation and cultured in Iscove's Modified Dulbecco's Media (IMDM; GIBCO/BRL; Grand Island, N.Y.) supplemented with 10% fetal calf serum, 300 μg/ml glutamine, 3 units/ml IL-3 (Amgen; Thousand Oaks, Calif.), and 2 units/ml erythropoietin (Terry Fox Labs; Vancouver, B.C.). Chemical compounds were obtained from Sigma Chemical (St. Louis, Mo.) or Aldrich Chemical (Milwaukee, Wis.), unless otherwise indicated, and formulated into pharmaceutical compositions by dissolving in aqueous solutions of media or sterile water pH adjusted to about 7.4. Solutions were sterilized by passage at least once through 0.22 micron Nalgene filters and added to cell cultures at final concentrations that are pharmaceutically achievable in vivo (typically between about 0.1 mM to 2.0 mM). Cells were incubated with compounds for between 13-14 days at 37° C. in humidified 5% CO2, and fed and passed, as necessary. Colony growth, proportion of fetal globin-expressing cells and amounts of fetal globin production were assayed. Results are presented in Table 1 as BFU-e stimulation (colony growth).

[4] = system: erythroid progenitor cells cultured from human cord blood; test: Fetal globin expression in human cell cultures (3H-leucine labelled globin chains, densitometry); type: cell-based
How it was run: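 Human cord-blood mononuclear cells were grown in IMDM with 30% FCS and 2 U/ml erythropoietin, with compound present for 12–13 days or overnight. Colonies were labelled with 3H-leucine and chased overnight in leucine-free medium with compound. Globin chains were quantified by electrophoresis with Coomassie densitometry and autoradiography, relative to untreated cells from the same donor.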

[5] = 1.0 mM to 2.0 mM, untreated cells 26%
[6] = 2.0 mM, 4 days, controls 26%, 22%

| Structure (SMILES) | Degraded DNA ([1]; 0.5 mM, 4 days, controls 26%, 22%) [%] | Degraded DNA [1, 5] [%] | Degraded DNA ([1]; 1.0 mM, 4 days, controls 26%, 22%) [%] | Degraded DNA [1, 6] [%] | effect in DNA fragmentation assays [1] | protein-DNA binding activity in gel shift [2] | BFU-e Stimulation (colony growth) [3] [%] | Gamma Increase ([4]; Exp. A, 0.1 mM, 12-13 days, above untreated cells) [%] | Gamma/(Gamma + Beta) ([4]; Exp. A, 0.1 mM, 12-13 days, untreated 76.0%) [%] | Gamma Increase ([4]; Exp. B, 0.5 mM, 12-13 days) [%] | Gamma/(Gamma + Beta) ([4]; Exp. B, 0.5 mM, 12-13 days, untreated 25.4%, 27.5%) [%] | Gamma Increase ([4]; Exp. C, 0.5 mM, overnight) [%] | Gamma/(Gamma + Beta) ([4]; Exp. C, 0.5 mM, overnight, untreated 52.0%) [%] |
| --- | --- | --- | --- | --- | --- | --- | --- | --- | --- | --- | --- | --- | --- |
| CCCC(=O)O [AB, arginine butyrate] | 32 | 44 | 34 | 44 | decrease cell viability | a new binding activity appeared | – | – | – | – | – | – | – |
| O=C(O)COc1ccccc1 [PAA, Phenoxyacetic acid] | – | 20.6 | – | 20.6 | reduce DNA fragmentation | – | 135 | 6 | 82.0 | 13 | 38.8 | 3.6 | 55.6 |
